# Assay results published in patent US11141413B2, “Method of treating renal cell carcinoma using N-(4-(6,7-dimethoxyquinolin-4-yloxy)phenyl)-N′-(4-fluorophenyl)cyclopropane-1,1-dicarboxamide, (2S)-hydroxybutanedioate” (Exelixis, Inc., priority 2016, dated 2021).
# How the values were obtained:
# human lymphocytes = test: In vitro cytogenetic assay
# [1] = Excretion after single 140 mg 14C-cabozantinib dose in healthy subjects; format: in vivo, human
# Method: Approximately 81% of the total administered radioactivity was recovered within a 48-day collection period following a single 140 mg dose of an investigational ^14C-cabozantinib formulation in healthy subjects. Approximately 54% was recovered in feces and 27% in urine.
# pregnant rabbits = test: Embryo-fetal development study in pregnant rabbits; format: in vivo, rabbit; conditions: daily oral administration throughout organogenesis
# juvenile rats = test: Juvenile rat toxicity study; format: in vivo
# Method: […]. Mortalities occurred at doses equal and greater than 1 mg/kg/day (approximately 0.16 times the clinical dose of 60 mg/day based on body surface area).
# P-gp = P-gp (Homo sapiens, UniProt P08183); test: Drug transporter systems in vitro; format: in vitro ADME
# CYP1A2 [2] = biological target: T1, CYP1A2 (Homo sapiens, UniProt P05177); test: Metabolic pathways in vitro: effect of CYP inhibition on cabozantinib metabolite formation; format: in vitro ADME
# CYP3A4 [3] = biological target: T2, CYP3A4 (Homo sapiens, UniProt P08684); test: as above; format: in vitro ADME
# CYP2C8 [4] = biological target: T3, CYP2C8 (Homo sapiens, UniProt P10632); test: In vitro CYP inhibition by cabozantinib; format: in vitro ADME
# [5] = system: metastatic renal cell carcinoma (mRCC); test: CABOSUN (ALLIANCE A031203) trial, cabozantinib vs sunitinib as initial targeted therapy
# Method: Pts were randomized 1:1 to receive Cabo (60 mg QD) or Sun (50 mg QD, 4 weeks on/2 weeks off). Pts were stratified by the IMDC risk groups (intermediate vs. poor risk) and bone metastasis (yes, no). […] Secondary endpoints included OS, investigator-assessed overall response rate (ORR), and toxicity. The Kaplan-Meier product-limit estimator was used to estimate the OS between treatment arms.
# MRP2 = MRP2 (Homo sapiens, UniProt Q92887); test: Drug transporter systems in vitro; format: in vitro ADME
# [6] = system: renal cell carcinoma (RCC) patients; test: Exposure-response (ER) Cox proportional hazard model of progression-free survival; conditions: time-varying average daily cabozantinib concentration
# bacteria = test: Bacterial reverse mutation (Ames) assay; conditions: in vitro
# CYP2C8 [7] = biological target: T3, CYP2C8; test: Metabolic pathways in vitro: effect of CYP inhibition on cabozantinib metabolite formation; format: in vitro ADME
# female rats = test: 14-day general toxicology study in female rats; format: in vivo, rat; conditions: 5 mg/kg/day for 14 days
# CYP3A4 [8] = biological target: T2, CYP3A4; test: Clinical drug interaction: strong CYP3A4 inducer rifampin on cabozantinib; format: in vivo; parameters: from tissue; conditions: with rifampin 600 mg daily for 31 days, healthy subjects
# CYP1A1 mRNA = test: In vitro CYP induction by cabozantinib; format: in vitro ADME
# CYP2C19 = CYP2C19 (Homo sapiens, UniProt P33261); test: Metabolic pathways in vitro: effect of CYP inhibition on cabozantinib metabolite formation; format: in vitro ADME
# CYP2E1 = CYP2E1 (Homo sapiens, UniProt P05181); test: as above; format: in vitro ADME
# patients = test: Cabozantinib clinical program: serious events and overdosage case; format: in vivo, human
# QTc interval = conditions: human, in vivo
# KIT = KIT (Homo sapiens, UniProt P10721); test: In vitro biochemical and/or cellular kinase assays
# CYP2A6 = CYP2A6 (Homo sapiens, UniProt P11509); test: Metabolic pathways in vitro: effect of CYP inhibition on cabozantinib metabolite formation; format: in vitro ADME
# mouse = test: In vivo mouse micronucleus assay
# rasH2 transgenic mice = test: 26-week carcinogenicity study; conditions: 26-week study
# CYP2D6 [9] = biological target: T4, CYP2D6 (Homo sapiens, UniProt P10635); test: In vitro CYP inhibition by cabozantinib; format: in vitro ADME
# TIE-2 = TIE-2 (Homo sapiens, UniProt Q02763); test: In vitro biochemical and/or cellular kinase assays
# male and female rats = conditions: rat, in vivo
# [10] = system: female rats and offspring; test: Pre- and postnatal study in rats; conditions: oral, gestation day 10 through postnatal day 20
# ROS1 = ROS1 (Homo sapiens, UniProt P08922); test: In vitro biochemical and/or cellular kinase assays
# CYP2D6 [11] = biological target: T4, CYP2D6; test: Metabolic pathways in vitro: effect of CYP inhibition on cabozantinib metabolite formation; format: in vitro ADME
# CYP1A2 [12] = biological target: T1, CYP1A2; test: In vitro CYP inhibition by cabozantinib; format: in vitro ADME
# [13] = system: advanced renal cell carcinoma; conditions: nivolumab study; cited from earlier work
# T4 sequence (P10635 whole entry): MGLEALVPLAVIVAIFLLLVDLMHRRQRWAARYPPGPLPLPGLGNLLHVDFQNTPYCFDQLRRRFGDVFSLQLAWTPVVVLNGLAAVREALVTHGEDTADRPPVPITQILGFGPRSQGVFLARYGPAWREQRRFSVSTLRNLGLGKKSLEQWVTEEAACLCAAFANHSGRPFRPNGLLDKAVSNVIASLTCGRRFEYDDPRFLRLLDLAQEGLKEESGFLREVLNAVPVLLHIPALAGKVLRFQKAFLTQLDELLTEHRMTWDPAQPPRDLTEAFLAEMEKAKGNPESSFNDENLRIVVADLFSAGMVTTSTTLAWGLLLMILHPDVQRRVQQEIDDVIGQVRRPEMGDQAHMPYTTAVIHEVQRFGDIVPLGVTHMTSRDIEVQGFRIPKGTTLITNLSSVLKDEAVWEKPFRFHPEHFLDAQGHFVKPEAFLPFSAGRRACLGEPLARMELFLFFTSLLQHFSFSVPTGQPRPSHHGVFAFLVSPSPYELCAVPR
# T2 sequence (P08684 whole entry): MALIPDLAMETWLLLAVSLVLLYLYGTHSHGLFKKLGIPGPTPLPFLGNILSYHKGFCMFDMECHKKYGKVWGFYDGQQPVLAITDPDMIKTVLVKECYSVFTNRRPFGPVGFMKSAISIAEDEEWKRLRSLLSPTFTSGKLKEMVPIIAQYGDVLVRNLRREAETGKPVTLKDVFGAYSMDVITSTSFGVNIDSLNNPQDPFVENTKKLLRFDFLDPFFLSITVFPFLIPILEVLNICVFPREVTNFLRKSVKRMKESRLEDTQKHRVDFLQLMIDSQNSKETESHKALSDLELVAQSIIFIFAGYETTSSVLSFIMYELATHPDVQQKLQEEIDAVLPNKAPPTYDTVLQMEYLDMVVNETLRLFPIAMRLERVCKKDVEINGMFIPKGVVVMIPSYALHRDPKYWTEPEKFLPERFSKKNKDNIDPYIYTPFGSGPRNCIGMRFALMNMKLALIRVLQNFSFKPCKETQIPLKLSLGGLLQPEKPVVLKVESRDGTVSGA
# Sequence of P-gp (P08183 whole entry): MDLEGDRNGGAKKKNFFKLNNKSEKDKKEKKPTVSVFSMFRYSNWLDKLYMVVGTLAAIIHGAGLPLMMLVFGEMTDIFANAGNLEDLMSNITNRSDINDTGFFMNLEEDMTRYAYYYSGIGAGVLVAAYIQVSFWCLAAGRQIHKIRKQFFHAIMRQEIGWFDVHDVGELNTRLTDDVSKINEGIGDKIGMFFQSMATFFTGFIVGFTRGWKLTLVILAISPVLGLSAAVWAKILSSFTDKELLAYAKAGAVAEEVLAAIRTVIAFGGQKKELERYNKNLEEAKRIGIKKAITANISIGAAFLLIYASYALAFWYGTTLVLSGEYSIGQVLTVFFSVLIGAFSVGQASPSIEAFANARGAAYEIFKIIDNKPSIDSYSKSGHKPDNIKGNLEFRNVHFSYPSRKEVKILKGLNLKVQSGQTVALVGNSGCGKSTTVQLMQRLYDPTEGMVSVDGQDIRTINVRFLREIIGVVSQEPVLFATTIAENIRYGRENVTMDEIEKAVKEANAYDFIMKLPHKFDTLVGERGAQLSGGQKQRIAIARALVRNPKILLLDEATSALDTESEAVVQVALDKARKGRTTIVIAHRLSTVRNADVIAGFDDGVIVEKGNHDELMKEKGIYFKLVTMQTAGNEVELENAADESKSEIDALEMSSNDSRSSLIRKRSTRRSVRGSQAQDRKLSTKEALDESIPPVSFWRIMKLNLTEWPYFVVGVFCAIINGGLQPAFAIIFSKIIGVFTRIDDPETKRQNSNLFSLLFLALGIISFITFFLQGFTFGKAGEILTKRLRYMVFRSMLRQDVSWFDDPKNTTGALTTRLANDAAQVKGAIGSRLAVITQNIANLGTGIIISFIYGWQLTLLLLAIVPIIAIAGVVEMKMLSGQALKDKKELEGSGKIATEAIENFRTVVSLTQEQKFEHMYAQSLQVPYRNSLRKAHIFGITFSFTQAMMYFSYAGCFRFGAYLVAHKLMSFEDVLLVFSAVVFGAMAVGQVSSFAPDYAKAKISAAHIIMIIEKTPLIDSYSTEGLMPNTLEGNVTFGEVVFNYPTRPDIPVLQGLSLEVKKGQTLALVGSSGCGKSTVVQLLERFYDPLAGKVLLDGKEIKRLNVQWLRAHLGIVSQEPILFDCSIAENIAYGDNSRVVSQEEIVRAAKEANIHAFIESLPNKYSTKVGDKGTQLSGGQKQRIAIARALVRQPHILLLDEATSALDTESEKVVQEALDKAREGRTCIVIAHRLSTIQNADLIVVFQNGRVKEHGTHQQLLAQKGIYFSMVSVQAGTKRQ
# T3 sequence (P10632 whole entry): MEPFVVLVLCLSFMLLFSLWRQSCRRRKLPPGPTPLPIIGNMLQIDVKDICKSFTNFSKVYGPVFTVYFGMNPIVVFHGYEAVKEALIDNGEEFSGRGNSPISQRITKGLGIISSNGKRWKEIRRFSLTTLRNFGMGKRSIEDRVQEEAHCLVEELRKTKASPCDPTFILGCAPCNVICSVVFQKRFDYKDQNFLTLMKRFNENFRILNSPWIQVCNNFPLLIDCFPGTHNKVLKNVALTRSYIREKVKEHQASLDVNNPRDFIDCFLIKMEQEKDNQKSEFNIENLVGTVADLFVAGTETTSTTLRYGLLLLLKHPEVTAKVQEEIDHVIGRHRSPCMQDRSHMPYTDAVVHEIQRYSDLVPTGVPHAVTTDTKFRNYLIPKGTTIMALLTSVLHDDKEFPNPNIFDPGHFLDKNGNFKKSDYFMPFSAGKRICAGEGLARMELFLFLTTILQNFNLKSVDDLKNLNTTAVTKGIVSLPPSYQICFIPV
# T1 sequence (P05177 whole entry): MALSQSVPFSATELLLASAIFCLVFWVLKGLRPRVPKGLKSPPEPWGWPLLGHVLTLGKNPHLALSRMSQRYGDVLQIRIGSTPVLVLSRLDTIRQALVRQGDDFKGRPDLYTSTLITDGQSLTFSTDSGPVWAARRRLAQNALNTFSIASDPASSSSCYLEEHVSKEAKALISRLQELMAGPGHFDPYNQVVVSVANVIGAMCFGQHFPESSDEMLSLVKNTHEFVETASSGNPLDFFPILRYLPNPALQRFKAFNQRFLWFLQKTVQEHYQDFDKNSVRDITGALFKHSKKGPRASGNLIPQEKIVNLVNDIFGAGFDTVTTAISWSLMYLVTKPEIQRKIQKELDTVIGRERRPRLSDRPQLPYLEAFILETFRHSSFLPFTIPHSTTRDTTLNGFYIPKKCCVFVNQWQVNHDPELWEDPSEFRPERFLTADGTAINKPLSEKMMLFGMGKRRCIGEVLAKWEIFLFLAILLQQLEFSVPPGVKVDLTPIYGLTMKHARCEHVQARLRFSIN
# Sequence of CYP2C19 (P33261 whole entry): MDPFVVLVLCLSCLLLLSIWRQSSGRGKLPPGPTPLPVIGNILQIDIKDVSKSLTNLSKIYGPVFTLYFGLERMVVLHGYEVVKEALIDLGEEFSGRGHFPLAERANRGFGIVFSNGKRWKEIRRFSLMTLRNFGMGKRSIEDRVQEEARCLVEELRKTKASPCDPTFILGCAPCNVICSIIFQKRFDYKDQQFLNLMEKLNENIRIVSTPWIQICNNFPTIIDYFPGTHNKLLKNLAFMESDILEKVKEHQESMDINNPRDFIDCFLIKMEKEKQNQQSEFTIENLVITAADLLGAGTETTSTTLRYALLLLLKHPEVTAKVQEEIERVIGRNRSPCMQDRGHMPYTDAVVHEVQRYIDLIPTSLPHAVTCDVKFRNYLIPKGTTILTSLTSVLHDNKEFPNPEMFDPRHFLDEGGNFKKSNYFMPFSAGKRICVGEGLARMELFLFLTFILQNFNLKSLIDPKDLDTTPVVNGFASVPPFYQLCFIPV
# Sequence of TIE-2 (Q02763 23-1124): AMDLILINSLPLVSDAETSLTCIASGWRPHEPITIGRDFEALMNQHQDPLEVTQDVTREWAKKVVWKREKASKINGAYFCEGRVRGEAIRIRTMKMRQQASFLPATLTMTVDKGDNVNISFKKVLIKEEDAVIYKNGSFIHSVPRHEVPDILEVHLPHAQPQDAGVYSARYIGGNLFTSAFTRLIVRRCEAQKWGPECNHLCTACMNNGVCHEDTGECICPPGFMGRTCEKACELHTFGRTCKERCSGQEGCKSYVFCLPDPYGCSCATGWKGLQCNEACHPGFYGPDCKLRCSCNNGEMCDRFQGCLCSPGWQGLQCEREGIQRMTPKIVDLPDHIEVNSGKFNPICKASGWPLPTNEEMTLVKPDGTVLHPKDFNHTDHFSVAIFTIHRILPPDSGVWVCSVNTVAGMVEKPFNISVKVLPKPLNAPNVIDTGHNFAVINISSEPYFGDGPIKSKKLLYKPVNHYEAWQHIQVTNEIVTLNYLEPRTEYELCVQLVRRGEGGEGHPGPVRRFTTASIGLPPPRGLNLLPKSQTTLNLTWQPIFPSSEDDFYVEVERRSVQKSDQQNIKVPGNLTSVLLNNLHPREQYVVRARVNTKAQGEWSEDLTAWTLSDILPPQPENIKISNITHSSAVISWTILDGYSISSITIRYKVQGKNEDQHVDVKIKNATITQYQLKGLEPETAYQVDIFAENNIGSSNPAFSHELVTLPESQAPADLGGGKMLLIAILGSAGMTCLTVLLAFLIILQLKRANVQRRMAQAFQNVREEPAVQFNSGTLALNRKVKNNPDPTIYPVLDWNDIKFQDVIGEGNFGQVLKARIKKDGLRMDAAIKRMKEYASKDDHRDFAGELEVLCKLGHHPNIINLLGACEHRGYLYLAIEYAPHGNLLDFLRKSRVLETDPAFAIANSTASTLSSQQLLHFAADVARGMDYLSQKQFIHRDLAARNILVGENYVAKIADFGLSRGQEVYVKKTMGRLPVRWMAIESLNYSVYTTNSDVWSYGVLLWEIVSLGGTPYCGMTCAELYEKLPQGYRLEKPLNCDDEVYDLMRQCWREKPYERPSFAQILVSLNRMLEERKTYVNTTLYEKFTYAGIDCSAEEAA
smiles,measurement,setting,value
COc1cc2nccc(Oc3ccc(NC(=O)C4(C(=O)Nc5ccc(F)cc5)CC4)cc3)c2cc1OC [cabozantinib],Clastogenicity,human lymphocytes,not clastogenic
same,Radioactivity recovered in feces,[1]; 48-day collection,Approximately 54%
same,Radioactivity recovered in urine,[1]; 48-day collection,~27%
same,Unchanged cabozantinib in urine,[1]; 72 hour collection,not detectable
same,"Unchanged cabozantinib, share of total radioactivity in feces",[1]; 72 hour collection,43%
same,Total administered radioactivity recovered,"[1]; within a 48-day collection period, single 140 mg dose",Approximately 81%
same,"Dose with visceral malformations and variations (reduced spleen size, missing lung lobe)",pregnant rabbits,3 mg/kg
same,Mortality dose as multiple of the clinical dose of 60 mg/day based on body surface area,juvenile rats; 1 mg/kg/day,approximately 0.16 times
same,Doses at which mortalities occurred,juvenile rats; Postnatal Day 12 through 35 or 70,≥ 1 mg/kg/day
same,Inhibition of P-gp transport activities,P-gp,inhibitor
same,P-gp substrate status,P-gp,not a substrate
same,Effect of inhibition of CYP1A2 on cabozantinib metabolite formation,CYP1A2 [2],no effect
same,CYP3A4 substrate status in vitro,CYP3A4 [3],substrate
same,Inhibition of CYP2C8 in vitro,CYP2C8 [4],inhibitor
same,"Diarrhea, grade 3 or 4",[5]; all-causality,10%
same,"Fatigue, grade 3 or 4",[5]; all-causality,6%
same,"Hematologic adverse events, grade 3 or 4",[5]; all-causality,3%
same,"Hypertension, grade 3 or 4",[5]; all-causality,28%
same,"Palmar-plantar erythrodysesthesia, grade 3 or 4",[5]; all-causality,8%
same,All-causality grade 3 or 4 adverse events,[5]; in vivo,67%
same,Median OS,[5]; in vivo,30.3 months
same,ORR,[5]; in vivo,46%
same,"OS adjusted HR, cabozantinib vs sunitinib",[5]; in vivo,0.80
same,Reduction in rate of progression or death vs sunitinib,[5]; in vivo,34%
same,Median PFS,"[5]; untreated mRCC, intermediate or poor risk",8.2 months
same,MRP2 substrate status in vitro,MRP2,substrate
same,EC50 of best Emax model for rate of PD or death,[6],100 ng/mL
same,Mutagenicity,bacteria,not mutagenic
same,Effect of inhibition of CYP2C8 on cabozantinib metabolite formation,CYP2C8 [7],no effect
same,Ovarian finding,female rats,exhibited ovarian necrosis
same,Decrease in single-dose plasma cabozantinib exposure (AUC0-inf),CYP3A4 [8],77%
same,Induction of CYP1A1 mRNA,CYP1A1 mRNA,inducer
same,Effect of inhibition of CYP2C19 on cabozantinib metabolite formation,CYP2C19,no effect
same,Effect of inhibition of CYP2E1 on cabozantinib metabolite formation,CYP2E1,no effect
same,Fatal hemorrhages,"patients; human, in vivo",Fatal hemorrhages also occurred
same,Fatal perforations,"patients; human, in vivo",Fatal perforations occurred
same,Fatal thrombotic events,"patients; human, in vivo",Fatal thrombotic events occurred
same,Reversible Posterior Leukoencephalopathy Syndrome (RPLS),"patients; human, in vivo",occurred
same,Overdosage case findings,patients; twice the intended dose (200 mg daily) of another formulation for nine days,"Grade 3 memory impairment, Grade 3 mental status changes, Grade 3 cognitive disturbance, Grade 2 weight loss, and Grade 1 increase in BUN"
same,Changes in cardiac wave form morphology or new rhythms,QTc interval,not observed
same,Inhibition of tyrosine kinase activity,KIT,inhibits
same,Effect of inhibition of CYP2A6 on cabozantinib metabolite formation,CYP2A6,no effect
same,Clastogenicity,mouse,not clastogenic
same,Carcinogenicity,rasH2 transgenic mice,not carcinogenic
same,Inhibition of CYP2D6 in vitro,CYP2D6 [9],does not inhibit
same,Inhibition of tyrosine kinase activity,TIE-2,inhibits
same,Doses at which female fertility was significantly reduced,male and female rats; female,≥ 1 mg/kg/day
same,Doses at which male fertility was significantly compromised,male and female rats; male,≥ 2.5 mg/kg/day
same,"Doses without adverse maternal toxicity or effect on pregnancy, parturition, lactation, offspring survival, growth or postnatal development",[10],up to 0.3 mg/kg/day
same,Inhibition of tyrosine kinase activity,ROS1,inhibits
same,Effect of inhibition of CYP2D6 on cabozantinib metabolite formation,CYP2D6 [11],no effect
same,Inhibition of CYP1A2 in vitro,CYP1A2 [12],does not inhibit
CO[C@H]1C[C@@H]2CC[C@@H](C)[C@@](O)(O2)C(=O)C(=O)N2CCCC[C@H]2C(=O)O[C@H]([C@H](C)C[C@@H]2CC[C@@H](OCCO)[C@H](OC)C2)CC(=O)[C@H](C)/C=C(\C)[C@@H](O)[C@@H](OC)C(=O)[C@H](C)C[C@H](C)/C=C/C=C/C=C/1C [everolimus],Median OS of comparator arm,[13],19.6 months
same,Median PFS of control arm,[13],4.4 months
